Consider 20 molecules from patent publication EP2951180B1, “2,6,7,8 SUBSTITUTED PURINES AS HDM2 INHIBITORS” (Merck Sharp & Dohme Corp., priority 2013, dated 2014).

Read-outs that look alike come from different tables or passages of the source.

Usually IC50 stands for the point on the concentration scale where inhibition reaches its midpoint.

The target of this test is T1, HDM2 (Homo sapiens, UniProt Q00987).
T1 construct: Thioredoxin (N); made in house; host or cells: E. coli strain BL21(DE3)Rosetta
In words: HDM2 FRET assay (inhibition of binding of FITC labeled p53-pocket peptide to HDM2). As to conditions: read-out: FRET IC50. In outline: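 Displacement of FITC-p53 peptide (3 nM) from His-tagged HDM2 (0.5 nM) is measured by Tb-to-fluorescein FRET in PBS, 0.01% BSA, 0.01% Tween-20. IC50 values derive from 10-point curves.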

Setting [1] is: 0.5 nM HDM2 (residues 17 to 125), 3nM peptide, two hour incubation at room temperature.

T1 sequence (Q00987 17-125): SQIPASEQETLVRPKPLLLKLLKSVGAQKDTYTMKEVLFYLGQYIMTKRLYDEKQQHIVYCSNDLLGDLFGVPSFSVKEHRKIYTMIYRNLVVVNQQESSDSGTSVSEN

As for `CCOc1nc(C(=O)O)nc2nc(-c3cccc(C)c3)n(Cc3ccc(C(F)(F)F)cc3)c12` [Example 17.1, 6-ethoxy-8-(3-methylphenyl)-7-[4-(trifluoromethyl)benzyl]-7H-purine-2-carboxylic acid], the IC50 under setting [1] was 5900 nM. On to `CN(Cc1ccccc1)c1nc2nc(-c3n[nH]c(=O)o3)nc(-c3cccc(Cl)c3)c2n1C[C@H]1CC[C@H](C)CC1` [Example 16.62, 5-{8-[benzyl(methyl)amino]-6-(3-chlorophenyl)-7-[(trans-4-methylcyclohexyl)methyl]-7H-purin-2-yl}-1,3,4-oxadiazol-2(3H)-one], for which the IC50 under setting [1] came out at 136 nM. On the same count and under the same terms, under `CC(C)c1ccnc(-c2nc3nc(C(C)(C)O)nc(N[C@H](C)C4CCC4)c3n2C[C@H]2CC[C@H](C)CC2)c1` [Example 12.7, 2-(6-{[(1R)-1-cyclobutylethyl]amino}-7-[(trans-4-methylcyclohexyl)methyl]-8-[4-(propan-2-yl)pyridin-2-yl]-7H-purin-2-yl)propan-2-ol] stands 731 nM. On to `C[C@@H](Nc1nc(-c2noc(=O)[nH]2)nc2nc(N3CCCC3c3ccccc3)n(C[C@H]3CC[C@H](C)CC3)c12)C1CCC1` (stereo partly drawn) [Example 11.130, 3-[6-{[(1R)-1-cyclobutylethyl]amino}-7-[(trans-4-methylcyclohexyl)methyl]-8-(2-phenylpyrrolidin-1-yl)-7H-purin-2-yl]-1,2,4-oxadiazol-5(4H)-one], for which the IC50 (Table 11) was 2.05 nM. Turning to `CONC(=O)c1nc(N[C@H](C)C2CCC2)c2c(n1)nc(-c1cc(C(C)C)ccn1)n2Cc1ccc(C(F)(F)F)cc1` [Example 12.32, 6-{[(1R)-1-cyclobutylethyl]amino}-N-methoxy-8-[4-(1-methylethyl)pyridin-2-yl]-7-[4-(trifluoromethyl)benzyl]-7H-purine-2-carboxamide], the IC50 under setting [1] amounted to 42.5 nM. With `CC1CCCCN1c1nc2nc(-c3noc(=O)[nH]3)nc(N[C@H](C)C3CCC3)c2n1C[C@H]1CC[C@H](C)CC1` (stereo partly drawn) [Example 11.47, 3-[6-{[(1R)-1-cyclobutylethyl]amino}-7-[(trans-4-methylcyclohexyl)methyl]-8-(2-methylpiperidin-1-yl)-7H-purin-2-yl]-1,2,4-oxadiazol-5(4H)-one], where the note is “Table 11”, the IC50 was 7.27 nM. As for `CCC(CO)c1nc2nc(-c3noc(=O)[nH]3)nc(N[C@H](C)C3CCC3)c2n1C[C@H]1CC[C@H](C)CC1` (stereo partly drawn) [Example 22.82, 3-(6-{[(1R)-1-cyclobutylethyl]amino}-8-[1-(hydroxymethyl)propyl]-7-[(trans-4-methylcyclohexyl)methyl]-7H-purin-2-yl)-1,2,4-oxadiazol-5(4H)-one], the IC50 (Table 22) was 10.1 nM. As to `C[C@@H](Nc1nc(-c2noc(=O)[nH]2)nc2nc(N3CCOCC3c3ccc(Cl)cc3)n(C[C@H]3CC[C@H](C)CC3)c12)C1CCC1` (stereo partly drawn) [Example 11.99, 3-{8-[3-(4-chlorophenyl)morpholin-4-yl]-6-{[(1R)-1-cyclobutylethyl]amino}-7-[(trans-4-methylcyclohexyl)methyl]-7H-purin-2-yl}-1,2,4-oxadiazol-5(4H)-one], the IC50 (Table 11) is 3.43 nM. With `C[C@@H](Nc1nc(C(=O)O)nc2nc(Nc3ccccc3)n(Cc3ccc(C(F)(F)F)cc3)c12)C1CCC1` [Example 9.21, 6-{[(1R)-1-cyclobutylethyl]amino} -8-(phenylamino)-7-[4-(trifluoromethyl)benzyl]-7H-purine-2-carboxylic acid], under “Table 9”, the IC50 turned out to be 9.44 nM.

On to `C[C@@H](Nc1nc(C(=O)O)nc2nc(NC(C)(C)c3ccccc3)n(Cc3ccc(C(F)(F)F)cc3)c12)C1CCC1` [Example 9.123, 6-{[(1R)-1-cyclobutylethyl]amino}-8-[(1-methyl-1-phenylethyl)amino]-7-[4-(trifluoromethyl)benzyl]-7H-purine-2-carboxylic acid], for which the IC50 (Table 9) stood at 1.85 nM. In the case of `CC(C)C[C@H]1COCCN1c1nc2nc(-c3noc(=O)[nH]3)nc(-c3cccc(Cl)c3)c2n1C[C@H]1CC[C@H](C)CC1` [Example 16.39, 3-{6-(3-chlorophenyl)-7-[(trans-4-methylcyclohexyl)methyl]-8-[(3S)-3-(2-methylpropyl)morpholin-4-yl]-7H-purin-2-yl}-1,2,4-oxadiazol-5(4H)-one], under setting [1], the IC50 was 47.5 nM.

Regarding `Cc1cccc(-c2nc3nc(C(=O)O)nc(OCC4CCC4)c3n2Cc2ccc(C(F)(F)F)cc2)c1` [Example 17.3, 6-(cyclobutylmethoxy)-8-(3-methylphenyl)-7-[4-(trifluoromethyl)benzyl]-7H-purine-2-carboxylic acid], the IC50 under setting [1] stood at 192 nM. As to `C[C@@H]1COCCN1c1nc2nc(C(=O)O)nc(N[C@H](C)C3CCC3)c2n1Cc1ccc(C(F)(F)F)cc1` [Example 9.35], the IC50 (Table 9) is 7.17 nM.

`C[C@@H](Nc1nc(C(=O)O)nc2nc(N3CCCCC3c3ccc(F)cc3)n(C[C@H]3CC[C@H](C)CC3)c12)C1CCC1` (stereo partly drawn) [Example 11.18, 6-{[(1R)-1-cyclobutylethyl]amino}-8-[2-(4-fluorophenyl)piperidin-1-yl]-7-[(trans-4-methylcyclohexyl)methyl]-7H-purine-2-carboxylic acid]: where the note is “Table 11”, the IC50 stood at 4.42 nM. As to `CCC1=CCC(Cn2c(-c3cc(C(C)C)ccn3)nc3nc(-c4noc(=O)[nH]4)nc(N[C@H](C)C4CCC4)c32)CC1` (stereo partly drawn) [Example 18.25, 3-(6-{[(1R)-1-cyclobutylethyl]amino}-7-[(4-ethylcyclohex-3-en-1-yl)methyl]-8-[4-(1-methylethyl)pyridin-2-yl]-7H-purin-2-yl)-1,2,4-oxadiazol-5(4H)-one], where the note is “Table 18”, the IC50 was 44 nM. Consider `C[C@H]1CC[C@H](Cn2c(SC3CCCC3)nc3nc(-c4n[nH]c(=O)o4)nc(-c4cncc(Cl)c4)c32)CC1` [Example 19.4, 5-{6-(5-chloropyridin-3-yl)-8-(cyclopentylsulfanyl)-7-[(trans-4-methylcyclohexyl)methyl]-7H-purin-2-yl}-1,3,4-oxadiazol-2(3H)-one], for which the IC50 (Table 19) is 3.05 nM. As to `CC(O)c1nc2nc(-c3noc(=O)[nH]3)nc(N[C@H](C)C3CCC3)c2n1C[C@H]1CC[C@H](C)CC1` (single isomer, unassigned) [Example 22.15], the IC50 (Table 22) is 45.1 nM. As to `C[C@@H](Nc1nc(C(=O)O)nc2nc(N(CC3CC3)[C@@H](C)c3ccccc3)n(Cc3ccc(C(F)(F)F)cc3)c12)C1CCC1` [Example 10.29, 6-(((R)-1-Cyclobutylethyl)amino)-8-((cyclopropylmethyl)((S)-1-phenylethyl)amino)-7-(4-(trifluoromethyl)benzyl)-7H-purine-2-carboxylic acid], the IC50 (Table 10) was found to be 35.3 nM. As to `C[C@@H](Nc1nc(C(=O)O)nc2nc(N3CCC3c3ccccc3)n(Cc3ccc(C(F)(F)F)cc3)c12)C1CCC1` (stereo partly drawn) [Example 9.54, 6-{[(1R)-1-cyclobutylethyl]amino}-8-(2-phenylazetidin-1-yl)-7-[4-(trifluoromethyl)benzyl]-7H-purine-2-carboxylic acid], the IC50 (Table 9) is 23.9 nM. For the molecule `CC(O)(c1nc2nc(-c3noc(=O)[nH]3)nc(-c3cccc(Cl)c3)c2n1C[C@H]1CC[C@H](C)CC1)C1CCOCC1` (mixture of isomers) [Example 23.4, 3-{6-(3-chlorophenyl)-8-[1-hydroxy-1-(tetrahydro-2H-pyran-4-yl)ethyl]-7-[(trans-4-methylcyclohexyl)methyl]-7H-purin-2-yl}-1,2,4-oxadiazol-5(4H)-one], the IC50 (Table 23) came out at 19.2 nM.
